Data taken from ChEMBL document CHEMBL5370548, “Discovery, optimization and biological evaluation of novel HBsAg production inhibitors” (Eur J Med Chem, 2023).
Active and inactive are the calls of the source. The rule behind the calls is not given here.

Assays:
Hepatitis B virus [1] = experiment: Antiviral activity against HBV infected in human HepG2.2.15 cells assessed as inhibition of HBsAg level incubated for 6 days with replacement of fresh media for every 72 hrs by real-time qPCR analysis; type: functional, organism-based
Hepatitis B virus [2] = experiment: Antiviral activity against HBV infected in human HepG2.2.15 cells assessed as inhibition of HBV DNA incubated for 6 days with replacement of fresh media for every 72 hrs by real-time qPCR analysis; type: functional, organism-based
[3] = Tmax in ICR mouse at 10 mg/kg, IG by UPLC-MS/MS analysis; type: ADME, organism-based; conditions: in vivo, po
[4] = Cmax in ICR mouse at 10 mg/kg, IG by UPLC-MS/MS analysis; type: ADME, organism-based; set-up: dose 10 mg/kg, route ig; conditions: in vivo, po
[5] = AUC (0 to t) in ICR mouse at 10 mg/kg, IG by UPLC-MS/MS analysis; type: ADME, organism-based; set-up: dose 10 mg/kg, route ig; conditions: in vivo, po
[6] = Clearance in ICR mouse at 1 mg/kg, iv by UPLC-MS/MS analysis; type: ADME, organism-based; conditions: in vivo
[7] = AUC (0 to infinity) in ICR mouse at 10 mg/kg, IG by UPLC-MS/MS analysis; type: ADME, organism-based; set-up: dose 10 mg/kg, route ig; conditions: in vivo, po
[8] = AUC (0 to t) in ICR mouse at 1 mg/kg, iv by UPLC-MS/MS analysis; type: ADME, organism-based; set-up: dose 1 mg/kg, route iv; conditions: in vivo
[9] = AUC (0 to infinity) in ICR mouse at 1 mg/kg, iv by UPLC-MS/MS analysis; type: ADME, organism-based; set-up: dose 1 mg/kg, route iv; conditions: in vivo
[10] = Volume of distribution at steady state in ICR mouse at 1 mg/kg, iv by UPLC-MS/MS analysis; type: ADME, organism-based; conditions: in vivo, read-out: Vdss
[11] = Half life in ICR mouse at 1 mg/kg, iv by UPLC-MS/MS analysis; type: ADME, organism-based; conditions: in vivo
[12] = Bioavailability in ICR mouse at 1 mg/kg, iv by UPLC-MS/MS analysis; type: ADME, organism-based; conditions: in vivo
[13] = Half life in ICR mouse at 10 mg/kg, IG by UPLC-MS/MS analysis; type: ADME, organism-based; conditions: in vivo, po
[14] = Metabolic stability in human liver microsomes assessed as parent compound remaining at 1 uM measured upto 60 min in presence of NADPH by LC-MS/MS analysis; type: ADME, Microsome; conditions: read-out: Stability
[15] = Metabolic stability in human liver microsomes assessed as half life at 1 uM preincubated for 5 mins followed by NADPH addition and measured upto 60 min by LC-MS/MS analysis; type: ADME, Microsome; conditions: time < 65 min
[16] = Metabolic stability in mouse liver microsomes assessed as parent compound remaining at 1 uM measured upto 60 min in presence of NADPH by LC-MS/MS analysis; type: ADME, Microsome; conditions: read-out: Stability
[17] = Metabolic stability in mouse liver microsomes assessed as half life at 1 uM preincubated for 5 mins followed by NADPH addition and measured upto 60 min by LC-MS/MS analysis; type: ADME, Microsome; conditions: time < 65 min
[18] = Metabolic stability in mouse liver microsomes assessed as intrinsic clearance at 1 uM preincubated for 5 mins followed by NADPH addition and measured upto 60 min by LC-MS/MS analysis; type: ADME, Microsome; conditions: time < 65 min, read-out: CLH
[19] = Metabolic stability in human liver microsomes assessed as intrinsic clearance at 1 uM preincubated for 5 mins followed by NADPH addition and measured upto 60 min by LC-MS/MS analysis; type: ADME, Microsome; conditions: time < 65 min, read-out: CLH
Hepatitis B virus [20] = experiment: In vivo antiviral activity against HBV infected in uPA/SCID mouse assessed as reduction in serum HBsAg level at 10 mg/kg, po administered twice daily for 21 days and measured upto 35 days; type: functional; conditions: time <= 35 day
Hepatitis B virus [21] = experiment: In vivo antiviral activity against HBV infected in uPA/SCID mouse assessed as reduction in serum HBsAg level at 10 mg/kg, po administered twice daily for 28 days; type: functional, organism-based; conditions: time 28.0 day
HepG2 2.2.15 = experiment: Cytotoxicity against human HepG2.2.15 cells by CCK-8 method; type: functional

COCCN(C)c1cc(F)nc(N2C[C@H]3CC[C@@H]2c2cnc(-c4ncccn4)nc23)c1
EC50 (Hepatitis B virus [1]): 244 nM
EC50 (Hepatitis B virus [2]): 154 nM

COCCOc1cc(F)nc(N2[C@H]3CC[C@@H]2c2cnc(-c4ncccn4)nc2C3)c1
EC50 (Hepatitis B virus [1]): 73 nM
EC50 (Hepatitis B virus [2]): 44 nM

CN(C)c1cc(F)nc(N2[C@@H]3CCC[C@H]2c2cnc(-c4ccccn4)nc2C3)c1 (single isomer, unassigned)
EC50 (Hepatitis B virus [1]): > 10000 nM
EC50 (Hepatitis B virus [2]): > 10000 nM

COCCCOc1cc2c(cc1OC)-c1cc(=O)c(C(=O)O)cn1[C@H](C(C)C)C2
Tmax [3]: 0.25 h
Cmax [4]: 1100 ng/mL
EC50 (Hepatitis B virus [1]): 6 nM
AUC(0-t) [5]: 3060 ng·h/mL
clearance [6]: 47.8 mL/min/kg
AUC(0-inf) [7]: 3080 ng·h/mL
AUC(0-t) [8]: 346 ng·h/mL
EC50 (Hepatitis B virus [2]): 1 nM
AUC(0-inf) [9]: 349 ng·h/mL
Vd [10]: 2.7 L/kg
half-life [11]: 0.653 h
bioavailability [12]: 88.6%
half-life [13]: 1.12 h

COCCNc1cc(F)nc(N2[C@H]3CC[C@@H]2c2cnc(-c4ncccn4)nc2C3)c1
EC50 (Hepatitis B virus [1]): 94 nM
EC50 (Hepatitis B virus [2]): 111 nM

CN(C)c1cc(N2[C@H]3CC[C@@H]2c2cnc(-c4ncccn4)nc2C3)cc(F)n1
EC50 (Hepatitis B virus [1]): 2450 nM
EC50 (Hepatitis B virus [2]): 89 nM

COC1CCN(c2cc(F)nc(N3[C@H]4CC[C@@H]3c3cnc(-c5ncccn5)nc3C4)c2)C1 (some centres undefined)
EC50 (Hepatitis B virus [1]): 193 nM
EC50 (Hepatitis B virus [2]): 189 nM

COCCN(C)c1cc(F)nc(N2[C@H]3CC[C@@H]2c2cnc(-c4ncccn4)nc2C3)c1
EC50 (Hepatitis B virus [1]): 31 nM
EC50 (Hepatitis B virus [2]): 21 nM

Fc1cc(N2CC(F)C2)cc(N2[C@@H]3CCC[C@H]2c2cnc(-c4ncccn4)nc2C3)n1 (single isomer, unassigned)
EC50 (Hepatitis B virus [1]): 12 nM
EC50 (Hepatitis B virus [2]): 7 nM

CN(C)c1cc(F)nc(N2[C@@H]3CCC[C@H]2c2cnc(-c4ncccn4)nc2C3)c1 (single isomer, unassigned)
Tmax [3]: 0.5 h
Cmax [4]: 9900 ng/mL
EC50 (Hepatitis B virus [1]): 14 nM
AUC(0-t) [5]: 31000 ng·h/mL
clearance [6]: 6.67 mL/min/kg
remaining at 1 h, 1 µM [14]: 69%
half-life at 1 µM [15]: 1.93 h
AUC(0-inf) [7]: 31900 ng·h/mL
AUC(0-t) [8]: 2480 ng·h/mL
remaining at 1 h, 1 µM [16]: 52.4%
EC50 (Hepatitis B virus [2]): 2 nM
AUC(0-inf) [9]: 2490 ng·h/mL
half-life at 1 µM [17]: 1.12 h
Vd [10]: 0.96 L/kg
half-life [11]: 1.65 h
bioavailability [12]: 125%
CLint scaled at 1 µM [18]: 81.4 mL/min/kg
CLint scaled at 1 µM [19]: 10.7 mL/min/kg
half-life [13]: 1.95 h
Activity (Hepatitis B virus [20]): 0.74 log10/ml

Fc1cc(N2CCOCC2)cc(N2[C@H]3CC[C@@H]2c2cnc(-c4ncccn4)nc2C3)n1
EC50 (Hepatitis B virus [1]): 54 nM
EC50 (Hepatitis B virus [2]): 39 nM

Fc1cc(N2CC(F)C2)cc(N2[C@H]3CC[C@@H]2c2cnc(-c4ncccn4)nc2C3)n1
Tmax [3]: 0.25 h
Cmax [4]: 9580 ng/mL
EC50 (Hepatitis B virus [1]): 44 nM
Activity (Hepatitis B virus [21]): Active
AUC(0-t) [5]: 27400 ng·h/mL
CC50 (HepG2 2.2.15): > 100000 nM
clearance [6]: 4.88 mL/min/kg
remaining at 1 h, 1 µM [14]: 99.7%
half-life at 1 µM [15]: > 3.33 h
AUC(0-inf) [7]: 27400 ng·h/mL
AUC(0-t) [8]: 3410 ng·h/mL
EC50 (Hepatitis B virus [2]): 18 nM
AUC(0-inf) [9]: 3410 ng·h/mL
Vd [10]: 0.49 L/kg
half-life [11]: 1.16 h
bioavailability [12]: 80.2%
half-life [13]: 1.23 h
Activity (Hepatitis B virus [20]): 1.08 log10/ml

COC1CN(c2cc(F)nc(N3[C@H]4CC[C@@H]3c3cnc(-c5ncccn5)nc3C4)c2)C1
EC50 (Hepatitis B virus [1]): 116 nM
remaining at 1 h, 1 µM [14]: 105%
half-life at 1 µM [15]: > 3.33 h
EC50 (Hepatitis B virus [2]): 31 nM

COC1CN(c2cc(F)nc(N3[C@@H]4CCC[C@H]3c3cnc(-c5ncccn5)nc3C4)c2)C1 (single isomer, unassigned)
EC50 (Hepatitis B virus [1]): 16 nM
remaining at 1 h, 1 µM [14]: 92.3%
half-life at 1 µM [15]: > 3.33 h
remaining at 1 h, 1 µM [16]: 80.4%
EC50 (Hepatitis B virus [2]): 16 nM
half-life at 1 µM [17]: > 3.33 h

COc1cc(F)nc(N2[C@@H]3CCC[C@H]2c2cnc(-c4ncccn4)nc2C3)c1 (single isomer, unassigned)
EC50 (Hepatitis B virus [1]): 26 nM
EC50 (Hepatitis B virus [2]): 15 nM

COCCN(C)c1cc(F)nc(N2C[C@@H]3CC[C@H]2c2cnc(-c4ncccn4)nc23)c1
EC50 (Hepatitis B virus [1]): > 10000 nM
EC50 (Hepatitis B virus [2]): 1090 nM

COc1cc(N2[C@H]3CC[C@@H]2c2cnc(-c4ncccn4)nc2C3)cc(F)c1F
EC50 (Hepatitis B virus [1]): 443 nM
remaining at 1 h, 1 µM [14]: 99.1%
half-life at 1 µM [15]: > 3.33 h
EC50 (Hepatitis B virus [2]): 169 nM

Fc1cc(NCC2CC2)cc(N2[C@H]3CC[C@@H]2c2cnc(-c4ncccn4)nc2C3)n1
EC50 (Hepatitis B virus [1]): 106 nM
EC50 (Hepatitis B virus [2]): 105 nM

CN(C)c1cc(F)nc(N2[C@H]3CC[C@@H]2c2cnc(-c4ncccn4)nc2C3)c1
EC50 (Hepatitis B virus [1]): 41 nM
remaining at 1 h, 1 µM [14]: 86.2%
half-life at 1 µM [15]: > 3.33 h
remaining at 1 h, 1 µM [16]: 63.9%
EC50 (Hepatitis B virus [2]): 34 nM
half-life at 1 µM [17]: 1.63 h
CLint scaled at 1 µM [18]: 56.2 mL/min/kg

CS(=O)(=O)N1CCN(c2cc(F)nc(N3[C@@H]4CCC[C@H]3c3cnc(-c5ncccn5)nc3C4)c2)CC1 (single isomer, unassigned)
EC50 (Hepatitis B virus [1]): 25 nM
remaining at 1 h, 1 µM [14]: 94%
half-life at 1 µM [15]: > 3.33 h
remaining at 1 h, 1 µM [16]: 85.7%
EC50 (Hepatitis B virus [2]): 75 nM
half-life at 1 µM [17]: > 3.33 h

Fc1cc(N2CC(F)C2)cc(N2[C@@H]3CCC[C@H]2c2cnc(-c4ccccn4)nc2C3)n1 (single isomer, unassigned)
EC50 (Hepatitis B virus [1]): > 10000 nM
EC50 (Hepatitis B virus [2]): > 10000 nM
